According to US20230115476A1, “DIETARY BUTYRATE AND ITS USES” (SOCIETE DES PRODUITS NESTLE S.A., priority 2019, published 2023):

Experiments:
[1] = tested on: porcine pancreatic lipase (PPL); experiment: In vitro lipolysis in simulated intestinal fluid (SIF), pH-stat; format: in vitro ADME
Procedure: (§1) 10 wt% oil in water emulsions stabilised by 0.3 wt% polyoxyethylene sorbitan mono-oleate (Tween® 80) were prepared by mixing the Tween 80 into the oil phase at 40° C., then mixing with the water phase using a magnetic stirrer. An emulsion was then created using a Hielscher UP 400S ultrasonic probe homogeniser equipped with a 5 mm diameter rod-like probe by applying 100% amplitude at 100% cycle for 2 minutes whilst the sample was cooled using ice water.
The lipid emulsion (2 mL) containing 200 mg of fat was subjected to gastrointestinal in vitro lipolysis. […]
The intestinal digestion step was performed in the pH stat where the pH was kept constant at 6.8 by addition of NaOH (0.05 M). […] During the intestinal phase of digestion, the kinetics of digestion were followed using a pH-stat (TIM856, Radiometer) technique and expressed as titratable acid (rather than fatty acid) that was calculated by the equation: […]
(§2) Since the digestion of dietary lipids involves lipases of both gastric and intestinal origin, lipid digestibility was assessed using two digestion models i) simulated intestinal fluid (SIF) with porcine pancreatic lipase (PPL) and ii) sequential digestion in simulated gastric fluid (SGF) with rabbit gastric lipase (RGL) followed by simulated intestinal fluid (SIF) with porcine pancreatic lipase (PPL).

[2] = tested on: rabbit gastric lipase (RGL) followed by porcine pancreatic lipase (PPL); experiment: Sequential in vitro digestion, simulated gastric fluid (SGF) then SIF, pH-stat; format: in vitro ADME
Procedure: as §1
The lipid emulsion (2 mL) containing 200 mg of fat was subjected to gastrointestinal in vitro lipolysis. […] For gastric digestion, the sample was incubated for 90 minutes with 8.5 mL of simulated gastric fluid (SGF), which consisted of 150 mM NaCl, 450 U/mL pepsin, 18 U/mL rabbit gastric lipase at 37° C. and a pH of 5.5.
The intestinal digestion step was performed in the pH stat where the pH was kept constant at 6.8 by addition of NaOH (0.05 M). […] The intestinal digestion step starts when the temperature reaches 37 ± 0.5° C. The pH was adjusted to pH 6.8 and after incubation of two minutes at this pH and temperature, a pancreatin solution (5 mM tris, 150 mM NaCl at pH 6.8) was added. The final composition of the intestinal fluid was 10 mM CaCl2, 12 mM mixed bile salts, 0.75 mM phospholipid, 150 mM NaCl and 4 mM tris(hydroxymethyl)aminomethane buffer. The intestinal digestion step was carried out for 3 hours in a titration manager from Radiometer. During the intestinal phase of digestion, the kinetics of digestion were followed using a pH-stat (TIM856, Radiometer) technique and expressed as titratable acid (rather than fatty acid) that was calculated by the equation: […]
as §2

[3] = tested on: colon epithelial cells; settings: Gillis et al. 2018; cited from earlier work
[4] = tested on: Enterobacteriaceae, Salmonella; settings: following oral streptomycin administration; Byndloss 2017, Rivera-Chavez 2016; cited from earlier work

## CCCC(=O)OCC(COC(=O)CCC)OC(=O)CCC [tributyrin]
[1]; SIF alone, emulsion with 200 mg fat, pH 6.8, 37° C.
  Initial rate of lipolysis: 223 ± 59 µmol/min
[1]; back titration to pH 11.5, overall extent after SIF and SGF-SIF (FIG. 2)
  Extent of digestion: 101.5 ± 0.9%
[2]; SGF-SIF sequential digestion, 90 min SGF pH 5.5 first
  Initial lipolysis rate in SIF: 44.1 ± 8.8 µmol/min
[2]; indicated by decreased total fatty acid release in SIF after RGL in SGF
  Lipolysis by gastric lipase: ~ 60%
[2]; overall conclusion in words
  Hydrolysis in the stomach (gastric lipolysis): extensive hydrolysis in the stomach
[3]
  Effect on antibiotic-induced lactate production: reduce antibiotic-induced lactate production
[4]
  Effect on pathogen expansion: restrict pathogen expansion
